{"source": "patent US20240115654A1", "about": "“INTRAVENOUS ADMINISTRATION OF ENGINEERED ANTIMICROBIAL AMPHIPHILIC PEPTIDES” (priority 2021, published 2024)", "key": {"[1]": {"system": "Enterococcus faecium isolates (n = 104)", "test": "microbe, parasite or virus in culture", "method": "Comparator antibiotics were supplied by Micromyx, and stock solutions were prepared on the first day of testing using solvents recommended by CLSI (1). Stock solutions of all compounds were made at 40× the final testing concentration and stored at −80° C. prior to testing. Information regarding compound source, catalog and lot number, testing concentrations and drug diluent for the comparators and test agent are detailed below in Table 3.\nThe test organisms evaluated in this study consisted of clinical isolates from the Micromyx Repository and reference isolates from the American Type Culture Collection (ATCC; Manassas, VA). The clinical isolates were obtained from USA hospitals. Upon initial receipt at Micromyx, the organisms were sub-cultured onto an appropriate agar medium. Following incubation, colonies were harvested from these plates and cell suspensions prepared and frozen at −80° C. with a cryoprotectant. […] Plates were incubated at 35° C. overnight.\nMIC values were determined using a broth microdilution procedure described by CLSI (1, 3).\nThe test articles and comparator compounds (300 μl at 40× the highest concentration to be tested) were dispensed into the appropriate wells in column 1. The Biomek 2000 was then used to make 2-fold serial dilutions in the mother plates from column 1 through column 11. The wells of Column 12 contained no drug and served as the organism growth control wells for the assay.\nThe daughter plates were completed on the Biomek FX instrument which transferred 5 μL of drug solution from each well of a mother plate to the corresponding well of each daughter plate in a single step. A standardized inoculum of each test organism was prepared per CLSI methods (1). The inoculum for each organism was dispensed into sterile reservoirs divided by length (Beckman Coulter), and the Biomek 2000 was used to inoculate the plates. Daughter plates were placed on the Biomek 2000 work surface in reverse orientation so that inoculation took place from low to high drug concentration.\nPlates were stacked 3-4 high, covered with a lid on the top plate, placed in plastic bags, and incubated at 35° C. for 16 to 20 hrs. Following incubation, the microplates were removed from the incubator and viewed from the bottom using a plate viewer. […] The MIC was read and recorded as the lowest concentration of drug that inhibited visible growth of the organism.\nClinical breakpoints to determine percent resistance within a given organism group were obtained from CLSI (3), with the exception of colistin for K. pneumoniae, Enterobacter spp., and E. coli, which are only available from EUCAST."}, "[2]": {"settings": "mouse, in vivo, iv, 3 mg/kg", "excerpt": "Male CD-1 mice will be received from an approved vendor and allowed to acclimate for a minimum of two days. Fasting will be not required.\nAll dosing syringes will be weighed prior to and following dosing. IV doses will be administered as a slow bolus (over ˜30 seconds) via direct venipuncture of a tail vein. All animals will be observed at dosing and each scheduled collection. All abnormalities will be recorded.\nTerminal blood samples will be collected via cardiac puncture following inhalation anesthesia.\nSample Processing and Storage: Blood samples will be collected into K2EDTA tubes and stored on wet ice. Whole blood will be processed to plasma by centrifugation (3500 rpm at 5° C.) within 30 minutes of collection. Plasma samples will be split into 2 equal aliquots and each transferred into 96 well plates (matrix tubes) and stored at −80° C. until analysis. Administered doses will be determined gravimetrically.\nPrior to extraction, a known concentration of a mass-adjusted internal standard (IS) will be added to assess recovery and allow for quantitation. Purified samples will be further subjected to high-performance liquid chromatography (HPLC) using C18 300 or 130 angstrom columns prior to MS/MS analysis. Multiple charge states will be observed by MS, so MS/MS will be employed to enable multiple reaction monitoring (MRM) analyses to determine the most MRM transitions with the highest signal-to-noise gain. Compound plasma concentrations will be determined by comparing to and compensating with co-purified IS peak intensity and validated calibrated standard curves.\nPharmacokinetic parameters will be calculated using non-compartmental methods as implemented in the Phoenix® WinNonlin® ver. 6.3 comprehensive TK/PK analysis software program (Pharsight Corporation; Mountain View, CA) using an IV infusion model. Pharmacokinetic analysis will be conducted using a 30-minute intravenous infusion time. Therefore, 30 minutes will be added to each sample time point postdose to obtain nominal time for TK analysis. Nominal times and dosage levels will be used for all calculations. Values below the lower limit of quantitation (BLQ) will be assigned a value of zero for the pharmacokinetic calculations. Microsoft® Excel® 2013 will be used for receipt of bioanalytical data, minor formatting, including setting BLQ values to “0”, transfer into WinNonlin® for PK analysis, and calculation of the mean when an approximated value will be excluded. All plasma concentration data from all animals will be included in the analysis. Graphical presentations will be performed using Microsoft® Excel® 2013."}, "[3]": {"settings": "IV infusion 1 mg/kg, Group 1, mean of rats"}, "[4]": {"settings": "IV infusion 5 mg/kg, Group 2, mean of rats"}, "[5]": {"settings": "IV infusion 10 mg/kg, Group 4, mean of rats"}}, "note": "Where two headings read alike, the source gives them in different places. Peptide text beside a SMILES is read from it."}
{"smiles": "CC(C)[C@H](NC(=O)[C@H](Cc1c[nH]c2ccccc12)NC(=O)[C@H](CCCNC(=N)N)NC(=O)[C@H](CCCNC(=N)N)NC(=O)[C@@H](NC(=O)[C@@H](NC(=O)[C@H](CCCNC(=N)N)NC(=O)[C@@H](NC(=O)[C@@H](NC(=O)[C@H](CCCNC(=N)N)NC(=O)[C@H](CCCNC(=N)N)NC(=O)[C@H](Cc1c[nH]c2ccccc12)NC(=O)[C@@H](NC(=O)[C@H](CCCNC(=N)N)NC(=O)[C@H](CCCNC(=N)N)NC(=O)[C@@H](NC(=O)[C@H](CCCNC(=N)N)NC(=O)[C@H](CCCNC(=N)N)NC(=O)[C@@H](NC(=O)[C@H](Cc1c[nH]c2ccccc12)NC(=O)[C@H](CCCNC(=N)N)NC(=O)[C@@H](N)CCCNC(=N)N)C(C)C)C(C)C)C(C)C)C(C)C)C(C)C)C(C)C)C(C)C)C(=O)N[C@@H](CCCNC(=N)N)C(=O)N[C@@H](CCCNC(=N)N)C(N)=O", "note": "[SEQ ID NO: 1] (H-RRWVRRVRRVWRRVVRVVRRWVRR-NH2)", "values": [{"measurement": "AUCinf_D", "setting": "[3]", "value": 787, "unit": "kg·ng·h/mL/ng"}, {"measurement": "CL", "setting": "[3]", "value": 21.87, "unit": "mL/min/kg"}, {"measurement": "Extrapolated", "setting": "[3]", "value": 3.28, "unit": "%"}, {"measurement": "Vss", "setting": "[3]", "value": 3.401, "unit": "L/kg"}, {"measurement": "Vz", "setting": "[3]", "value": 10.884, "unit": "L/kg"}, {"measurement": "AUCinf_D", "setting": "[4]", "value": 5158, "unit": "kg·ng·h/mL/ng"}, {"measurement": "Extrapolated", "setting": "[4]", "value": 0.424, "unit": "%"}, {"measurement": "Vss", "setting": "[4]", "value": 0.229, "unit": "L/kg"}, {"measurement": "Vz", "setting": "[4]", "value": 1.533, "unit": "L/kg"}, {"measurement": "AUCinf_D", "setting": "[5]", "value": 8049, "unit": "kg·ng·h/mL/ng"}, {"measurement": "CL", "setting": "[5]", "value": 2.12, "unit": "mL/min/kg"}, {"measurement": "Extrapolated", "setting": "[5]", "value": 0.186, "unit": "%"}, {"measurement": "Vz", "setting": "[5]", "value": 0.749, "unit": "L/kg"}, {"measurement": "MIC50", "setting": "[1]; Enterococcus faecium (n = 104)", "value": 1, "unit": "µg/mL"}, {"measurement": "MIC90", "setting": "[1]; Enterococcus faecium (n = 104)", "value": 2, "unit": "µg/mL"}, {"measurement": "Mode (MIC)", "setting": "[1]; Enterococcus faecium (n = 104)", "value": 1, "unit": "µg/mL"}, {"measurement": "MIC50", "setting": "[1]; isolates (n = 104)", "value": 0.5, "unit": "µg/mL"}, {"measurement": "MIC90", "setting": "[1]; isolates (n = 104)", "value": 1, "unit": "µg/mL"}, {"measurement": "MIC range", "setting": "[1]; isolates (n = 104)", "value": "0.25 to 2", "unit": "µg/mL"}, {"measurement": "Tmax", "setting": "[2]", "value": 2, "unit": "min"}]}
